Test results taken from patent publication US20260000676A1, “CHROMAN DERIVATIVES AS ESTROGEN RECEPTOR DEGRADERS” (THE REGENTS OF THE UNIVERSITY OF MICHIGAN, priority 2022, published 2026).
Read-outs that look alike come from different tables or passages of the source.

Key:
[1] = target: T1, ER (Homo sapiens (Human), UniProt P03372); assay: In-cell western blot analysis (Compounds B1 to B5); assay type: cell-based; conditions: 16 hours; read-out: ICW DC50
Description: In-cell western blot analysis. Cells are seeded in multi-well plates (e.g., at 40,000 or 10,000 cells/well). Diluted compounds at certain concentration are added (final 0.5% DMSO) and cells are incubated for a certain period of time (e.g., 16 hours). Formaldehyde (e.g., PBS:FA=9:1) is added and followed by washing with PBS. The cells are blocked with Licor blocking buffer (Li-Cor). The relative ER percentage in treated cells were obtained by comparing the values of treated wells to those in untreated and DMSO-treated wells as 100%.
In-cell western blot analysis, a. seed cells in black-sided/clear bottom 96- or 384-well plates at 40,000 or 10,000 cells/well, overnight; b, add diluted compounds (final 0.5% DMSO), 16 hours. 16 h later, remove medium, add 100 μL or 25 µL of 3.7-4.0% formaldehyde (PBS: FA=9:1), RT 20 min, no shaking; c. wash with PBS, and permeabilized with 100 μL or 25 μL/well of 1×PBS+0.1% Triton X-100 10 minutes; d. block with 100 μL or 25 L Licor blocking buffer (Li-Cor), RT 1 h, moderate shaking; d. Add 100 μL or 25 μL of anti-ER (cs-8644, 1:500-1,000)+GAPDH (Millipore MAB374, 1:1000) in Block+0.05% Tween 20. RT 2 h, gentle shaking. Negative control: cells plus secondary antibodies (no primary antibodies); e. wash×4 with PBS+0.05-0.1% Tween 20, gentel shaking; f, anti-rabbit-680 and anti-mouse-800 (both 1:1000 in LiCor block+0.05% Tween20, RT 1 h, gentle shaking, no light. LI-COR: 0.2% to reduce background; g. wash×4 with PBS+0.05% Tween 20, gental shaking; h, add 100 μL or 25 μL of PBS to each well and read on CLX plate reader. The relative ER percentage in treated cells were obtained by comparing the values of treated wells to those in untreated and DMSO-treated wells as 100%.

[2] = system: T47D cell line; assay: Cell growth assay (WST-8) in T47D cell line; assay type: cell-based; conditions: Homo sapiens, 96 h, WST-8, 4 days, read-out: Cell Growth Inhibition in T47D cell line IC50
Description: Cell Growth Assay. The cells are seeded at certain concentration (e.g., at 1500/well) in multi-well plates overnight. Cells are subsequently treated with the compounds. A certain period of time (e.g., 4 days) after the compound treatment, 10% WST-8 reagent is added to the culture medium and incubate under certain conduction (e.g., in a CO2 incubator at 37° C. for 2.5 hours). The absorbance is measured on each sample using a microplate reader at certain wavelength (e.g., 450 nm). The relative absorbance is calculated against the vehicle control from three individually repeats.
Cell Growth Assay. The cells were seeded at 1500/well in 96 well plates overnight. One day after the seeding, they were treated with indicated doses of compounds respectively. 4 days after the compound treatment, 10% WST-8 reagent was added to the culture medium and incubate in a CO2 incubator at 37° C. for 2.5 hours. Before reading, the plate was mixed gently on an orbital shaker for one minute to ensure homogeneous distribution of color. The absorbance was measured of each sample using a microplate reader at a wavelength of 450 nm. The relative absorbance was calculated against the vehicle control from three individually repeats.

[3] = target: T1, ER; assay: In-cell western (ICW) ER degradation assay in MCF-7 cells; assay type: cell-based; conditions: MCF7, 16 hrs; for DC50: ER degradation; for MCF7 Dmax %: maximal ER degradation
[4] = target: T1, ER; assay: In-cell western (ICW) ER degradation assay in T47D cells; assay type: cell-based; conditions: 16 hrs; for DC50: ER degradation
[5] = target: CRBN/DDB1 (Homo sapiens (Human), UniProt Q96SW2); assay: HTRF binding assay to CRBN/DDB1
CRBN/DDB1, sequence (Q96SW2 whole entry): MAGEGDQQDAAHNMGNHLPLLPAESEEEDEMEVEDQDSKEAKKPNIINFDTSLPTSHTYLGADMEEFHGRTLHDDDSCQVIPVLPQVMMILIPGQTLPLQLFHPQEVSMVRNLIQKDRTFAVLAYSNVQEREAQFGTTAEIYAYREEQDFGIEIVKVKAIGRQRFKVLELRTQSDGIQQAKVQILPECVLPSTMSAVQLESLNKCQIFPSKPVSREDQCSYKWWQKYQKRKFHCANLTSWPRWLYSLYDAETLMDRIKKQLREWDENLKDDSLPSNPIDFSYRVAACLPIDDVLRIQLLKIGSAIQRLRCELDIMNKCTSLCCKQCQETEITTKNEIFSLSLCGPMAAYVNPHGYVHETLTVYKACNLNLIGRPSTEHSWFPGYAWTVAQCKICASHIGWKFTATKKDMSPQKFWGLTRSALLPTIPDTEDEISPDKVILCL
CRBN/DDB1, sequence (Q16531 whole entry partner): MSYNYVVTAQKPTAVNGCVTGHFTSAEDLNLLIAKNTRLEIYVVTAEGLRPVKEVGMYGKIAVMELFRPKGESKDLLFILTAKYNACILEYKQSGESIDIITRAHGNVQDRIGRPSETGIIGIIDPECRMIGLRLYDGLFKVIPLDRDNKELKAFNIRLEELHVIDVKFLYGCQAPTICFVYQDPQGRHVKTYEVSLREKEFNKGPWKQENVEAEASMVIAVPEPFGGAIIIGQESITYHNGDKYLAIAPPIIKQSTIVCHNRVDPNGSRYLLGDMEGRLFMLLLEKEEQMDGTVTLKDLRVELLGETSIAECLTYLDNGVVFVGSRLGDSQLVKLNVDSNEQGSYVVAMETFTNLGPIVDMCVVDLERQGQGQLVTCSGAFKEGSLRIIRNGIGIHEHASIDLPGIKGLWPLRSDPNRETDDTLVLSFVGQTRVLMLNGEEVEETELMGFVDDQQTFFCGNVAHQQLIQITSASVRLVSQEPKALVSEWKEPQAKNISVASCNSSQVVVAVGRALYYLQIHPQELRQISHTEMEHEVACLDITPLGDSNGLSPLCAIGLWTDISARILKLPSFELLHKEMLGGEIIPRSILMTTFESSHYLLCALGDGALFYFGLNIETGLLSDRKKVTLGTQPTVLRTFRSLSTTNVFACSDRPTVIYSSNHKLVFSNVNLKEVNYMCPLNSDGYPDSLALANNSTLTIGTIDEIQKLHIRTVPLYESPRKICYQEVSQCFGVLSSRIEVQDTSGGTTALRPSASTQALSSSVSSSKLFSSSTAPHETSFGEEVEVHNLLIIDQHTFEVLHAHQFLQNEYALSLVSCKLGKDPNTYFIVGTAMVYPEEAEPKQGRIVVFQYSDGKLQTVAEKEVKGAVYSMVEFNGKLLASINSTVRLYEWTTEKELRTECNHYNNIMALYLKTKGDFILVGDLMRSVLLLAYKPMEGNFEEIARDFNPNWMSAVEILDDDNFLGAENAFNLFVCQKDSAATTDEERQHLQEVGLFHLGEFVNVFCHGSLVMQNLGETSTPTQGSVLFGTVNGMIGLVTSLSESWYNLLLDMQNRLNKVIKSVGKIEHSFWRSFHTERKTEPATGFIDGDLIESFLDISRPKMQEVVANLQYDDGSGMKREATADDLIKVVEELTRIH
Description: The binding potency was determined using HTRF assay technology (Perkin Elmer). Compounds were serially diluted in DMSO and 0.2 μL volume was transferred to white 384-well plate.

[6] = system: MCF-7 cells; conditions: read-out: MCF7 Proliferation IC50; CellTiter-Glo, day 6
Description: (§1) In vitro assay can be accomplished by MCF-7 and T47D Cell Titer Glo (CTG) assay. MCF-7 and T47D cell (From HDB) are cultured in multi-well white plate with phenol red-free RPMI1640+10% CS-FBS+1% P/S medium (e.g., at 1,000 cells/well). On day 0: Cells are treated with compound at certain concentrations (e.g., 0.5 to 10000 nM) (DMSO and Staurosporine as control). On day 0 and day 6: add Cell Titer Glo reagent and read on EnVision after 30 min incubation for data generation.
(§2) • 1) Cell culture medium: phenol red-free RPMI1640+10% CS-FBS, 1% P/S
(§3) Day-1: MCF-7 and T47D cell (From HDB) were cultured in 384-well white plate with phenol red-free RPMI1640+10% CS-FBS+1% P/S medium (1,000 cells/well) for overnight at 37° C., 5% CO2 incubator.
(§4) Day 0: Cells were treated at desired compound concentrations (0.5 to 10000 nM) (DMSO and Staurosporine as control) for Day 6 at 37° C., 5% CO2 incubator.
(§5) Day 0 and Day 6: add Cell TiterGlo reagent and read on EnVision after 30 min incubation for data generation.

[7] = system: T47D cells; conditions: read-out: T47D Proliferation IC50; CellTiter-Glo, day 6
Description: as §1, §2, §3, §4, §5

[8] = target: ERα_LBD(GST) (Homo sapiens (Human), UniProt P03372); assay: LanthaScreen TR-FRET ERα competitive binding assay; conditions: read-out: ERα HTRF IC50
ERα_LBD(GST), sequence (P03372 311-547): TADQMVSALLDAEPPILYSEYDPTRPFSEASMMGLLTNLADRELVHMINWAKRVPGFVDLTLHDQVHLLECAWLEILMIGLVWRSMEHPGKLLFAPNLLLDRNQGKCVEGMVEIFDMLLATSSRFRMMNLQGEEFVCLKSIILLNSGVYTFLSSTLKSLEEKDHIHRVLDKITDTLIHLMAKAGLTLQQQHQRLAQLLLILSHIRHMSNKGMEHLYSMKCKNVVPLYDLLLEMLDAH
Summary of the method: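 GST-tagged ERα LBD (4 nM) with Tb anti-GST (2 nM) and Fluormone ES2 Green tracer (3 nM) in nuclear receptor buffer K plus 5 mM DTT, 1% DMSO; 3-fold compound dilutions, 60 min at room temperature in the dark. TR-FRET 520/495 nm ratio vs log[ligand], sigmoidal fit for IC50; 1 μM ARV_471 as full-inhibition control.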

T1 sequence (P03372 whole entry): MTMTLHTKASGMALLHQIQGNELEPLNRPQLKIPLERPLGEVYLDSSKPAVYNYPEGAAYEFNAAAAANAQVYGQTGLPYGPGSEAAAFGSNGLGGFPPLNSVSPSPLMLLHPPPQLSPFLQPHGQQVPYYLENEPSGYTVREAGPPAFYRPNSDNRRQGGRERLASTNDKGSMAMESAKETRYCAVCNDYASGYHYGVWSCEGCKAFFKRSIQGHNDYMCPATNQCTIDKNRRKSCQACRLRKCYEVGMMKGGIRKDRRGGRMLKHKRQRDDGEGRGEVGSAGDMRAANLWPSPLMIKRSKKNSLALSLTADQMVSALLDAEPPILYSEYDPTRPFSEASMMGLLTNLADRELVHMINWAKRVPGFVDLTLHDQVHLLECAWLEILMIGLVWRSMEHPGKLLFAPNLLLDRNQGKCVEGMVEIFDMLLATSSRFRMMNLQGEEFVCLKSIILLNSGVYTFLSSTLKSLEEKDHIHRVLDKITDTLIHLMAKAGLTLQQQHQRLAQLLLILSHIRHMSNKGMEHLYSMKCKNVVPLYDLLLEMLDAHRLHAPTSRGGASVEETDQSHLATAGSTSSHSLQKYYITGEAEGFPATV

O=C1CCC(N2C(=O)c3cc4c(cc3C2=O)CN(CC(=O)N2CCC3(CC2)CCN(c2ccc(C5c6ccc(O)cc6OCC5c5ccccc5)cc2)CC3)C4)C(=O)N1 (stereo not drawn) [Compound B5, 2-(2,6-dioxopiperidin-3-yl)-6-(2-(9-(4-(7-hydroxy-3-phenylchroman-4-yl)phenyl)-3,9-diazaspiro[5.5]undecan-3-yl)-2-oxoethyl)-6,7-dihydropyrrolo[3,4-f]isoindole-1,3(2H,5H)-dione]
DC50 [1]: > 100 nM | IC50 [2]: > 10 nM

O=C1CCC(N2Cc3c(ccc4c3OCC43CCN(CC4CC5(CCN(c6ccc(C7c8ccc(O)cc8OCC7c7ccccc7)cc6)CC5)C4)CC3)C2=O)C(=O)N1 (stereo not drawn) [Compound B4, 3-(1′-((7-(4-(7-hydroxy-3-phenylchroman-4-yl)phenyl)-7-azaspiro[3.5]nonan-2-yl)methyl)-6-oxo-6,8-dihydro-2H,7H-spiro[furo [2,3-e]isoindole-3,4′-piperidin]-7-yl)piperidine-2,6-dione]
DC50 [1]: > 100 nM | IC50 [2]: > 10 nM

O=C1CCC(N2Cc3cc(N4CCN(CC5CC6(CCN(c7ccc([C@H]8c9ccc(O)cc9OC[C@H]8c8ccccc8)cn7)CC6)C5)CC4)ccc3C2=O)C(=O)N1 (stereo partly drawn) [Compound A98, (R)-3-(5-(4-((7-(5-((3R,4S)-7-hydroxy-3-3-phenylchroman-4-yl)pyridin-2-yl)-7-azaspiro[3.5]nonan-2-yl)methyl)piperazin-1-yl)-1-oxoisoindolin-2-yl)piperidine-2,6-dione]
DC50 [3]: < 1 nM | Dmax ([3]; MCF7, maximal ER degradation): ≥ 75% | DC50 [4]: < 1 nM | Dmax ([4]; maximal ER degradation): ≥ 75% | IC50 ([5]; read-out: CRBN HTRF IC50): 50 to 500 nM | IC50 [6]: < 50 nM | IC50 [7]: < 50 nM

O=C1CCC(N2Cc3cc(N4CCN(CC5CC6(CCN(c7ccc([C@@H]8c9ccc(O)cc9OC[C@@H]8c8ccccc8)cn7)CC6)C5)CC4)ccc3C2=O)C(=O)N1 (single isomer, unassigned) [Compound A92]
DC50 [3]: < 1 nM | MCF7 Dmax % [3]: B (“B”: >50% and <75%) | DC50 [4]: < 1 nM | T47D Dmax % ([4]; maximal ER degradation): B (“B”: >50% and <75%) | IC50 ([5]; CRBN HTRF IC50 (nM)): > 5000 nM | IC50 [6]: < 50 nM | IC50 [7]: < 50 nM

O=C1CCC(N2Cc3cc4c(cc3C2=O)OC[C@@H]2CN(CC3CCC5(CC3)CN(c3ccc([C@@H]6c7ccc(O)cc7OC[C@@H]6c6ccccc6)cc3)C5)CCN42)C(=O)N1 (stereo partly drawn) [Compound A53, 3-((S)-3-((2-(4-((3S,4R)-7-hydroxy-3-phenylchroman-4-yl)phenyl)-2-azaspiro[3.5]nonan-7-yl)methyl)-8-oxo-1,2,3,4,4a,5,8,10-octahydro-9H-pyrazino[1′,2′:4,5][1,4]oxazino[2,3-f]isoindol-9-yl)piperidine-2,6-dione]
DC50 [3]: 1 to 10 nM | MCF7 Dmax % [3]: B (“B”: >50% and <75%) | DC50 [4]: 1 to 10 nM | T47D Dmax % ([4]; maximal ER degradation): A (“A”; >=75%) | IC50 ([5]; read-out: CRBN HTRF IC50): 500 to 5000 nM | IC50 [6]: 50 to 500 nM | IC50 [7]: 50 to 500 nM | IC50 [8]: < 5 nM

O=C1CCC(N2Cc3c(ccc4c3OC[C@H]3CN(CC5CC6(CCN(c7ccc(C8c9ccc(O)cc9OCC8c8ccccc8)cc7)CC6)C5)CCN43)C2=O)C(=O)N1 (stereo partly drawn) [Compound B2]
DC50 [1]: > 100 nM | IC50 [2]: > 10 nM

O=C1CCC(N2Cc3cc4c(cc3C2=O)OC[C@@H]2CN(CC3CC5(CCN(c6ccc(C7c8ccc(O)cc8OCC7c7ccccc7)cc6)CC5)C3)CCN42)C(=O)N1 (stereo partly drawn) [Compound B3, 3-((4aS)-3-((7-(4-(7-hydroxy-3-phenylchroman-4-yl)phenyl)-7-azaspiro[3.5]nonan-2-yl)methyl)-8-oxo-1,2,3,4,4a,5,8,10-octahydro-9H-pyrazino[1′,2′:4,5] [1,4]oxazino[2,3-f]isoindol-9-yl) piperidine-2,6-dione]
DC50 [1]: > 100 nM | IC50 [2]: > 10 nM
